In patent publication US20080161366A1, “AMINOALKYL SUBSTITUTED ARYL SULFAMIDE DERIVATIVES AND METHODS OF THEIR USE” (Wyeth, priority 2006, published 2008):
Where a name gives a salt, the structure may show the parent alone.

What follows are compounds tested against human norepinephrine transporter (hNET) (Homo sapiens, UniProt P23975) (assay: hNET uptake, Protocol B: cell based norepinephrine reuptake assay using recombinant hNET (MDCK-Net6 cells)). Details: NE uptake (Protocol B) IC50 (nM), MDCK-Net6 cells, 3H-NE 16 nM.
human norepinephrine transporter (hNET), sequence (P23975 whole entry): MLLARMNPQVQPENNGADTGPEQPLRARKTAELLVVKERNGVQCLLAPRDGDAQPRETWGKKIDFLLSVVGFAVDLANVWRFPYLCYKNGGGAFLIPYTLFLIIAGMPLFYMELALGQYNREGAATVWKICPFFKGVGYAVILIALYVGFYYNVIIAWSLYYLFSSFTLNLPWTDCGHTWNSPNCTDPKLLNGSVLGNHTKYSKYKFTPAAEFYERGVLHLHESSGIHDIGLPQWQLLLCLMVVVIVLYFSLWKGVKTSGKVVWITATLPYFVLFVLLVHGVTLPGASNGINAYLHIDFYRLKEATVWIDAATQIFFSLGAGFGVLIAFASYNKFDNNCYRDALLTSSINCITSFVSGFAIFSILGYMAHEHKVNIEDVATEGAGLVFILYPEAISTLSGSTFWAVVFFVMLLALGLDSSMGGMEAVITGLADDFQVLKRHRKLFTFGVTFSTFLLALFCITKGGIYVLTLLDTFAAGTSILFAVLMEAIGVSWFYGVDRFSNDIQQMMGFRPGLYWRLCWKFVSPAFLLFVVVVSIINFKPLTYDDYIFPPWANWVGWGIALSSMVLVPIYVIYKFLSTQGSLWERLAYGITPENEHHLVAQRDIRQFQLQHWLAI

Row | IC50 [nM] | Compound
1 | 448 | CN(C)CCCN1c2c(F)cccc2N(c2ccc(F)cc2F)S1(=O)=O [Example 80, 3-[3-(2,4-Difluorophenyl)-7-fluoro-2,2-dioxido-2,1,3-benzothiadiazol-1(3H)-yl]-N,N-dimethylpropan-1-amine hydrochloride]
2 | 67 | O=S1(=O)N(CCNC2CCNCC2)c2ccccc2N1c1ccccc1 [Example 134, N-[2-(2,2-dioxido-3-phenyl-2,1,3-benzothiadiazol-1(3H)-yl)ethyl]piperidin-4-amine dihydrochloride]
3 | 14.2 | CNCCCCCN1c2ccccc2N(c2ccccc2F)S1(=O)=O [Example 66, 5-[3-(2-fluorophenyl)-2,2-dioxido-2,1,3-benzothiadiazol-1(3H)-yl]-N-methylpentan-1-amine]
4 | 2.41 | CNCCCN1c2cccc(F)c2N(c2ccccc2)S1(=O)=O [Example 41, 3-(4-fluoro-2,2-dioxido-3-phenyl-2,1,3-benzothiadiazol-1(3H)-yl)-N-methylpropan-1-amine]
5 | 77 | CCNCCCN1c2ccccc2N(c2ccc(F)cc2F)S1(=O)=O [Example 119, 3-[3-(2,4-difluorophenyl)-2,2-dioxido-2,1,3-benzothiadiazol-1(3H)-yl]-N-ethylpropan-1-amine hydrochloride]
6 | 84.1 | CNCCCN1c2ccccc2N(c2cccc(Cl)c2)S1(=O)=O [Example 68, 3-[3-(3-Chlorophenyl)-2,2-dioxido-2,1,3-benzothiadiazol-1(3H)-yl]-N-methylpropan-1-amine hydrochloride]
7 | 2360 | CNCCCN1c2cc(Br)ccc2N(c2ccccc2)S1(=O)=O [Example 37, 3-(6-bromo-2,2-dioxido-3-phenyl-2,1,3-benzothiadiazol-1(3H)-yl)-N-methylpropan-1-amine]
8 | 1780 | CNCCCN1c2ccccc2N(c2ccc(OC)cc2)S1(=O)=O [Example 7, 3-[3-(4-methoxyphenyl)-2,2-dioxido-2,1,3-benzothiadiazol-1(3H)-yl]-N-methylpropan-1-amine]
9 | 26 | CNCCCCN1c2ccccc2N(c2ccc(C)cc2F)S1(=O)=O [Example 104, 4-[3-(2-fluoro-4-methylphenyl)-2,2-dioxido-2,1,3-benzothiadiazol-1(3H)-yl]-N-methylbutan-1-amine]
10 | 224 | O=S1(=O)N(CCCNC2CCCCC2)c2ccccc2N1c1c(F)cccc1F [Example 130, N-{3-[3-(2,6-difluorophenyl)-2,2-dioxido-2,1,3-benzothiadiazol-1(3H)-yl]propyl}cyclohexanamine hydrochloride]
11 | 1900 | CNCCCN1c2ccccc2N(c2ccc(OC)nc2)S1(=O)=O [Example 28, 3-[3-(6-methoxypyridin-3-yl)-2,2-dioxido-2,1,3-benzothiadiazol-1(3H)-yl]-N-methylpropan-1-amine hydrochloride]
12 | 11 | CNCCCN1c2ccccc2N(c2ccc(F)cc2F)S1(=O)=O [Example 114, 3-[3-(2,4-difluorophenyl)-2,2-dioxido-2,1,3-benzothiadiazol-1(3H)-yl]-N-methylpropan-1-amine hydrochloride]
13 | 30 | CNCCCN1c2ccccc2N(c2ccc(Cl)cc2F)S1(=O)=O [Example 95, 3-[3-(4-chloro-2-fluorophenyl)-2,2-dioxido-2,1,3-benzothiadiazol-1(3H)-yl]-N-methylpropan-1-amine]
14 | 43 | O=S1(=O)N(CCCNCCO)c2ccccc2N1c1ccccc1F [Example 135, 2-({3-[3-(2-fluorophenyl)-2,2-dioxido-2,1,3-benzothiadiazol-1(3H)-yl]propyl}amino)ethanol]
15 | 195 | O=S1(=O)N(CCCNC2CCCC2)c2ccccc2N1c1c(F)cccc1F [Example 129, N-{3-[3-(2,6-difluorophenyl)-2,2-dioxido-2,1,3-benzothiadiazol-1(3H)-yl]propyl}cyclopentanamine hydrochloride]
16 | 12.2 | CNCCCN1c2ccccc2N(c2cccc(F)c2)S1(=O)=O [Example 12, 3-[3-(3-fluorophenyl)-2,2-dioxido-2,1,3-benzothiadiazol-1(3H)-yl]-N-methylpropan-1-amine]
